Reference: patent publication US5854252A, “Dihalotriazolopyrimidine derivatives” (Shell Internationale Research Maatschappij B.V., priority 1993, dated 1998)
≈ marks a conversion by molar mass, not a printed value.

Experiments:
Leptosphaeria nodorum = test: Activity against wheat leafspot (LN), Example 54(e); format: in vivo; details: therapeutic foliar spray as under (a) (600 ppm)
Description: The test is a direct therapeutic one using a foliar spray. Wheat seedlings (cv Norman), at the single leaf stage, are inoculated with an aqueous suspension containing 1.5×10^6 conidia/ml. The inoculated plants are kept for 24 hours at 20° C. in a high humidity cabinet, followed by spraying with the test compound as described under (a). After drying, the plants are kept for 6-8 days in the glasshouse at 22° C. and 70% relative humidity. Assessment is based on the density of lesions per leaf compared with that on leaves of control plants. The extent of disease control in all the above tests is expressed as a rating compared with either an untreated control or a diluent-sprayed-control, according to the criteria: […]

[1] = test system: Pseudocercosporella herpotrichoides; test: Activity against wheat eyespot in-vitro (PHI), Example 53(j); format: cell-based; details: 50 ppm, 12 days at 20° C.
Description: This test measures the in vitro activity of compounds against the fungus causing wheat eyespot. The test compound is dissolved or suspended in acetone and is added into 4 ml aliquots of half strength Potato Dextrose Broth dispensed in 25-compartment petri dishes to give a final concentration of 50 ppm compound and 2.5% acetone. Each compartment is inoculated with a 6 mm diameter plug of agar/mycelium taken from a 14 day old culture of P. herpotrichoides. Plates are incubated at 20° C. for 12 days until the assessment of mycelial growth. The extent of disease control in all the above tests is expressed as a rating compared with either an untreated control or a diluent-sprayed-control, according to the criteria: […]

Puccinia arachidis = test: Field pot test with Puccinia arachidis on peanuts; format: in vivo; details: topical, 456 h, 500 μg/ml spray, 1000 l/ha, 19 days after treatment, Abbott formula, read-out: % efficacy Puccinia arachidis
Description: 15 seeds of peanuts were sown in pots filled with a soil substrate. When the plants have developed 4 true leaves the fungicides and the test compounds were applied using a hand sprayer. The test compounds were applied at a concentration of 500 μg/ml in a […] containing 10% acetone and 0.05% Triton X 155 in water. The total amount of […] corresponded to 1000 l/ha. Six replicates per treatment were used. 2 Days after treatment the pots were exposed to peanut plants in the field on which the fungus, Puccinia arachidis, had formed sporulating pustules on the leaves. The assessment was carried out 19 days after treatment by estimating the percentage of infected leaf area. The % efficacy was calculated using the Abbott formula.

Pyricularia oryzae = format: in vivo; details: rice, therapeutic foliar spray, 1000 ppm
Cercospora arachidicola = test: Field pot test with Cercospora arachidicola on peanuts; format: in vivo; details: Mycosphaerella arachidis, topical, 360 h, 500 μg/ml spray, 1000 l/ha, 15 days after treatment, Abbott formula, read-out: % efficacy Cercospora arachidicola
Description: 15 Seeds of peanuts were sown in pots filled with a soil substrate. When the plants have developed 4 true leaves (approx. 12-14 days after seeding) the fungicides and the test compounds were applied using a hand sprayer. The test compounds were applied at a concentration of 500 μg/ml in a […] containing 10% acetone and 0.05% Triton X 155 in water. The total amount of […] corresponded to 1000 l/ha. Six replicates (pots) per treatment were used. 2 days after treatment the pots were exposed to peanut plants in the field on which the fungus, Cercospora arachidicola, had formed sporulating lesions. The assessment was carried out 15 days after treatment by estimating the percentage of infected leaf area. The % efficacy was calculated using the Abbott formula.

Plasmopara viticola [2] = test: Antisporulant activity against vine downy mildew (PVA), Example 53(a); format: in vivo; details: antisporulant foliar spray, 1000 ppm
Description: The test is a direct antisporulant one using a foliar spray. The lower surface of leaves of whole vine plants (cv Cabernet Sauvignon) are inoculated by spraying with an aqueous suspension containing 2.5×10^4 zoosporangia/ml two days prior to treatment with the test compound. The inoculated plants are kept for 24 hours in a high humidity compartment, then 24 hours at glasshouse ambient temperature and humidity. Infected leaves are sprayed on their lower surfaces with a solution of active material in 1:1 water/acetone containing 0.04% "TWEEN 20" (Trade Mark; a polyoxyethylene sorbitan ester surfactant). Plants are treated using an automated sprayline with an atomising nozzle. The concentration of the compound is 1000 ppm, and the spray volume is 700 l/ha. After spraying, the plants are returned to normal glasshouse conditions for 96 hours and are then transferred to the high humidity cabinet for 24 hours to induce sporulation, prior to assessment. Assessment is based on the percentage of the leaf area covered by sporulation compared with that on control leaves. The extent of disease control in all the above tests is expressed as a rating compared with either an untreated control or a diluent-sprayed-control, according to the criteria: […]

Gaeumannomyces graminis = test: MIC by serial dilution, Example 55, Gaeumannomyces graminis; format: cell-based; details: microtitre plates, 20° C., 6-8 days
Description: (§1) The MIC (Minimum Inhibition Concentration)-values were determined by serial dilution tests using 48-well microtitre plates. The dilution of the test compounds in the nutrient solution and the distribution to the wells were carried out by a TECAN RSP 5000 robotic sample processor.
(§2) For preparation of the nutrient solution, V8 juice (Trade Mark) was neutralised with calcium carbonate and centrifuged. The supernatant was diluted with distilled water (1:5) to the final concentration.
(§3) The fungi (Alternaria solani, Botrytis cinerea, Pseudocercosporella herpotrichoides, Micronectriella nivalis, Gaeumannomyces graminis) were added into the wells as a droplet of spore suspension. The microtitre plates were then incubated at 20° C. for 6-8 days. The MIC-value, which was defined to be the lowest concentration in the dilution series without mycelial growth, was determined by visual inspection of the plates.

[3] = test system: Erysiphe graminis f.sp. hordei; test: Activity against barley powdery mildew (EG), Example 53(h); format: in vivo; details: therapeutic foliar spray, 1000 ppm
Description: The test is a direct therapeutic one, using a foliar spray. Leaves of barley seedlings, (cv. Golden Promise) are inoculated by dusting with mildew conidia one day prior to treatment with the test compound. The inoculated plants are kept overnight at glasshouse ambient temperature and humidity prior to treatment. The plants are sprayed with the test compound at a dosage of 1000 ppm using an automated sprayline as described under (a). After drying, plants are returned to a compartment at 20°-25 ° C. and moderate humidity for up to 7 days, followed by assessment. Assessment is based on the percentage of leaf area covered by sporulation compared with that on leaves of control plants. The extent of disease control in all the above tests is expressed as a rating compared with either an untreated control or a diluent-sprayed-control, according to the criteria: […]

[4] = test system: Pseudocercosporella herpotrichoides; test: MIC by serial dilution, Example 55, Pseudocercosporella herpotrichoides; format: cell-based; details: Oculimacula yallundae; microtitre plates, 20° C., 6-8 days
Description: as §1, §2, §3

Micronectriella nivalis = test: MIC by serial dilution, Example 55, Micronectriella nivalis; format: cell-based; details: microtitre plates, 20° C., 6-8 days
Description: as §1, §2, §3

Plasmopara viticola [5] = test: Antisporulant activity against vine downy mildew (PVA), Example 54(a); format: in vivo; details: antisporulant foliar spray, 600 ppm
Description: The test is a direct antisporulant one using a foliar spray. The lower surface of leaves of vine plants (cv. Cabernet Sauvignon), approximately 8 cm high, are inoculated with an aqueous suspension containing 5×10^4 zoosporangia/ml. The inoculated plants are kept for 24 hours at 21° C. in a high humidity cabinet, then for 24 hours in a glasshouse at 20° C. and 40% relative humidity. Infected leaves are sprayed on their lower surfaces with a solution of the test compound in 1:1 water/acetone containing 0.04% "TWEEN 20" (Trade Mark; a polyoxyethylene sorbitan ester surfactant). Plants are sprayed using a track sprayer equipped with 2 air-atomising nozzles. The concentration of the compound is 600 ppm and the spray volume is 750 l/ha. After drying, the plants are returned to the glasshouse at 20° C. and 40% relative humidity for 96 hours and are then transferred to the high humidity cabinet for 24 hours to induce sporulation. Assessment is based on the percentage of the leaf area covered by sporulation compared with that on control leaves. The extent of disease control in all the above tests is expressed as a rating compared with either an untreated control or a diluent-sprayed-control, according to the criteria: […]

Compound: Clc1ccccc1-c1c(Br)nc2ncnn2c1Br [Example 2, 5,7-dibromo-6-(2-chlorophenyl)-1,2,4-triazolo[1,5a]pyrimidine]
- LN (disease control rating) (Leptosphaeria nodorum): 1 (50-80% disease control)

Compound: CC(C)c1ccc(-c2c(Cl)nc3ncnn3c2Cl)cc1 [Example 8]
- Fungicidal Activity PHI (disease control rating) [1]: 2 (greater than 80% disease control)
- pest or weed control at 500 µg/mL (Puccinia arachidis): 17%
- Fungicidal Activity PO (disease control rating) (Pyricularia oryzae): 1 (about 50-80% disease control)
- pest or weed control at 500 µg/mL (Cercospora arachidicola): 33%

Compound: Clc1nc2ncnn2c(Cl)c1-c1ccccc1OCc1ccccc1 [Example 20]
- Fungicidal Activity PHI (disease control rating) [1]: 1 (about 50-80% disease control)
- Fungicidal Activity PVA (disease control rating) (Plasmopara viticola [2]): 2 (greater than 80% disease control)

Compound: Clc1nc2ncnn2c(Cl)c1-c1cccs1 [Example 26]
- Fungicidal Activity PHI (disease control rating) [1]: 2 (greater than 80% disease control)
- MIC (Gaeumannomyces graminis): 0.39 µg/mL (≈ 1.44 µM)
- Fungicidal Activity EG (disease control rating) [3]: 1 (about 50-80% disease control)
- MIC [4]: 6.25 µg/mL (≈ 23.1 µM)
- MIC (Micronectriella nivalis): 0.78 µg/mL (≈ 2.88 µM)

Compound: Cc1ccccc1-c1c(Cl)nc2ncnn2c1Cl [Example 29]
- PVA (disease control rating) (Plasmopara viticola [5]): 1 (50-80% disease control)
- MIC (Gaeumannomyces graminis): 1.56 µg/mL (≈ 5.59 µM)
- MIC [4]: 12.5 µg/mL (≈ 44.8 µM)
- MIC (Micronectriella nivalis): 6.25 µg/mL (≈ 22.4 µM)

Compound: Clc1ccc(-c2c(Cl)nc3ncnn3c2Cl)c(Cl)c1 [Example 35]
- MIC (Gaeumannomyces graminis): 0.39 µg/mL (≈ 1.17 µM)
- LN (disease control rating) (Leptosphaeria nodorum): 1 (50-80% disease control)
- MIC [4]: 6.25 µg/mL (≈ 18.7 µM)
- MIC (Micronectriella nivalis): 0.39 µg/mL (≈ 1.17 µM)
